Six molecules from patent publication EP4745135A1 (Gluetacs Therapeutics (Shanghai) Co., Ltd., priority 2023, dated 2025) can be followed below.

The structures appear in SMILES notation.

As usually defined, the inhibition is the change of the read-out against control, counted positive when it falls.

Assay [1] deals with Human myeloid monocytic leukemia cell (MV-4-11). Kind of assay: Tumor cell proliferation inhibition (CellTiter-Meiluncell luminescent cell viability assay). The conditions noted are these: MV4-11, 96 h; for inhibition at 0.01 µM: read-out: Inhibition Rate at 10 nM (%); for inhibition at 0.5 µM: read-out: Inhibition Rate at 500 nM (%).
Description: (§1) The tumor cells used herein were cultured in a cell culture medium listed in table 2 at 37°C in an incubator with 5% CO2. Prior to experimentation, all cell lines used were correctly identified by STR profiling, and tested negative for mycoplasma contamination using a mycoplasma detection kit through routine screenings.
(§2) The IC50 values of the compounds of the present disclosure (including the compounds in Table 1 and Examples) were determined using the CellTiter-Meiluncell Luminescent Cell Viability Assay Kit from Dalian Meilun Biotech Co., Ltd. The detailed procedure is as follows: Tumor cells were seeded in 96-well cell culture plates at the densities specified in Table 3. On the following day, the test compounds of the present disclosure were subjected to serial dilution. The dilution can be performed according to one of the following two methods: • (1) The first dilution method: The test compounds of the present disclosure (including the compounds in Table 1 and Examples) were subjected to 5-fold serial dilutions starting from a highest concentration of 2000 µM, resulting in a total of 9 concentrations from high to low (2000, 400, 80, 16, 3.2, 0.64, 0.128, 0.0256, 0.00512 µM). Subsequently, 0.5 µL of the test compound dilution was transferred into the 96-well plate containing the cells, with each well containing 100 µL of cell culture medium. […] Into the 96-well plate, the diluted test compounds and corresponding detection reagents were added, resulting in final test compound concentrations of 500 nM and 10 nM, respectively. The experimental procedure is described below using the diluted 2 µM test compound as an example.
(§3) 0.5 µL of the aforementioned diluted compound of the present disclosure (including the compounds in Table 1 and Examples) was added to the seeded cells in 100 µL of medium, yielding a final test compound concentration of 10 nM. After the cells were treated with the compounds of the present disclosure for a specified period, the cell viability assay reagent was added to the culture medium according to the kit's instructions to determine cell viability. […] All controls were treated using the same procedure as the compounds of the present disclosure. The growth inhibition curves for the compounds of the present disclosure were plotted using Prism GraphPad software, and the IC50 values were calculated therefrom.
Assay [2] has as its system Human acute myeloid leukemia cell line: Kasumi-1. The description is as above. Particulars: Kasumi 1, 96 h; for inhibition at 0.01 µM: read-out: Inhibition Rate at 10 nM (%); for inhibition at 0.5 µM: read-out: Inhibition Rate at 500 nM (%).
For assay [3], the target named is T1, human Cereblon WT GST-tagged protein (Homo sapiens, UniProt Q96SW2).
T1 construct: purchased CISBIO 64BDCRBNPEH
T1 sequence (Q96SW2 whole entry): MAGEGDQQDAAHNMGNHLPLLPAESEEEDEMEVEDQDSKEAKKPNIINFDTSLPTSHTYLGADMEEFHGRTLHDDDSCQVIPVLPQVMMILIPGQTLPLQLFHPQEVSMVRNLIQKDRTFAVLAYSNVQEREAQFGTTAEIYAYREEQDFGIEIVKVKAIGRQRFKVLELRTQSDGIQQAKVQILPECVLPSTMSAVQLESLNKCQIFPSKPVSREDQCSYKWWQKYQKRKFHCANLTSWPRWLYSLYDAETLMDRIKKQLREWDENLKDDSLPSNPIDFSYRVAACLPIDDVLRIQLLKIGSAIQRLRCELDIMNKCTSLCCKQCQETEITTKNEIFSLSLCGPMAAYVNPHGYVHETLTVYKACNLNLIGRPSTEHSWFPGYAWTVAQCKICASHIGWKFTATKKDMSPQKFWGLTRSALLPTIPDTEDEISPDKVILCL
Kind of assay: CRBN-binding affinity, HTRF (CEREBLON BINDING kit). Particulars: for inhibition at 0.5 µM: read-out: Inhibition Rate at 0.5 µM (%); for inhibition at 2 µM: read-out: Inhibition Rate at 2 µM (%). (Time-resolved FRET reads energy transfer from a long-lived donor to a nearby acceptor.)

In assay [4] the test system is GSPT1. Kind of assay: Western blot, degradation of substrate protein in hPBMCs. It is filed as cell-based, Human. Particulars: Western blot, 24 hours of compound treatment, compounds tested at 50 nM and 500 nM (concentration for the table not stated). For orientation: A western blot detects proteins with antibodies after separation by electrophoresis.
The test system of assay [5] is Human multiple myeloma cell (MM.1S). Kind of assay: Tumor cell proliferation inhibition (CellTiter-Meiluncell luminescent cell viability assay). The conditions noted are these: Homo sapiens, MM1.S, 96 h; for inhibition at 0.01 µM: read-out: Inhibition Rate at 10 nM (%); for inhibition at 0.5 µM: read-out: Inhibition Rate at 500 nM (%).
The subject of assay [6] is Human T lymphocytic leukemia cell line: Jurkat. Described as above. Particulars: 96 h; for inhibition at 0.01 µM: read-out: Inhibition Rate at 10 nM (%); for inhibition at 0.5 µM: read-out: Inhibition Rate at 500 nM (%).
Description: as §1, §2, §3
Assay [7] has as its system Human acute T lymphocytic leukemia cell (Molt4). The description is as above. The conditions noted are these: MOLT-4, 96 h.
For assay [8], the target named is T2, IKZF3 (Homo sapiens, UniProt Q96SW2+Q9UKT9).
T2 construct: effects of the compounds of the present disclosure on the expression of target proteins in cells; endogenous in cells; host or cells: human PBMCs (Milecell Biotechnologies)
T2 sequence (Q9UKT9 whole entry): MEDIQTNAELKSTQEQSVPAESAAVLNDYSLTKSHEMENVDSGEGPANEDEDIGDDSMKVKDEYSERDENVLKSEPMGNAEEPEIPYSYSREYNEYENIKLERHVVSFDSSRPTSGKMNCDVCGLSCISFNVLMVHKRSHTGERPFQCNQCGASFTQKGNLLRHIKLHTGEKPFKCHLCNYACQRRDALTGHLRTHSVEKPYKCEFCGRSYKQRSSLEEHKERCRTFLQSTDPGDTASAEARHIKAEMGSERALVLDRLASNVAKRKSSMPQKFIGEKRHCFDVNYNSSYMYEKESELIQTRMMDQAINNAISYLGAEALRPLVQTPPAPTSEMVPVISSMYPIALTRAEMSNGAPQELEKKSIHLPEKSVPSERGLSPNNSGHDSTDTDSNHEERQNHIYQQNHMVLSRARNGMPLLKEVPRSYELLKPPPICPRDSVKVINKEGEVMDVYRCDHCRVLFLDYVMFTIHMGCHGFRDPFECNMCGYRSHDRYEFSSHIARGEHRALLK
T2 sequence (Q96SW2 whole entry): as the sequence (Q96SW2 whole entry) above
T2 sequence (Q16531 whole entry partner): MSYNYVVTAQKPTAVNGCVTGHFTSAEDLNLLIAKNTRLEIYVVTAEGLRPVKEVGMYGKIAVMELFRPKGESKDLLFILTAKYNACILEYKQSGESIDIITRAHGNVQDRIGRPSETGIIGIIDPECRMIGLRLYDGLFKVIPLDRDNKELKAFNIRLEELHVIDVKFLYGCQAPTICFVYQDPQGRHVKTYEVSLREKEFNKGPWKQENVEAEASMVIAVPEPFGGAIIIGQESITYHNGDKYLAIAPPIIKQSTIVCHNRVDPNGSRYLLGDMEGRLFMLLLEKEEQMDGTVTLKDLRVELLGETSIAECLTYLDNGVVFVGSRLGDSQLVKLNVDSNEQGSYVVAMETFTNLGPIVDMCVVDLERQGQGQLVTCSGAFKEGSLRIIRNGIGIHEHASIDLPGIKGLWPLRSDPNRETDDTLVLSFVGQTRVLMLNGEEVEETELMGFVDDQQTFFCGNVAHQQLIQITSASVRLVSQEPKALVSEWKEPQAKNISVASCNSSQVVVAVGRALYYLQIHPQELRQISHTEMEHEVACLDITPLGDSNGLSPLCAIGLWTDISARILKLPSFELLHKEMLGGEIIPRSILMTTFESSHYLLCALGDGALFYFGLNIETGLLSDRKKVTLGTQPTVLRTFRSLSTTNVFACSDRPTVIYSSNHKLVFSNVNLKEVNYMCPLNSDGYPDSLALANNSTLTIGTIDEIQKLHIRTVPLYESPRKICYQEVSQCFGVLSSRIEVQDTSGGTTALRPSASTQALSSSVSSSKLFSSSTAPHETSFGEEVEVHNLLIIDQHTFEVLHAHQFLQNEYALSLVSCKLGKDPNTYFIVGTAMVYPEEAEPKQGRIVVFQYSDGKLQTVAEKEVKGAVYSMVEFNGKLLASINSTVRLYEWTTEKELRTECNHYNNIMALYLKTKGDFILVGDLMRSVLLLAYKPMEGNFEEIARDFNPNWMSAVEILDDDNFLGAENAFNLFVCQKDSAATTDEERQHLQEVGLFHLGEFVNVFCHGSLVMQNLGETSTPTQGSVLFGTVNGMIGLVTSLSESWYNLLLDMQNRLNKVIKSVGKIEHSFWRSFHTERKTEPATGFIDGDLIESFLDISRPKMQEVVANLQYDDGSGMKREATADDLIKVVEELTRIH
Kind of assay: Western blot, degradation of substrate protein in hPBMCs. Particulars: Western blot, 24 hours of compound treatment, compounds tested at 50 nM and 500 nM (concentration for the table not stated). It is filed as cell-based.

Assay [9] addresses T3, WEE1 (Homo sapiens, UniProt P30291+Q96SW2).
T3 construct: effects of the compounds of the present disclosure on the expression of target proteins in cells; endogenous in cells; host or cells: human PBMCs (Milecell Biotechnologies)
The assay is described as above. The class given is cell-based. The conditions noted are these: Western blot, 24 hours of compound treatment, compounds tested at 50 nM and 500 nM (concentration for the table not stated).

In assay [10] the target is T4, IKZF2 (Homo sapiens, UniProt Q96SW2+Q9UKS7).
T4 construct: effects of the compounds of the present disclosure on the expression of target proteins in cells; endogenous in cells; host or cells: human PBMCs (Milecell Biotechnologies)
T4 sequence (Q9UKS7 whole entry): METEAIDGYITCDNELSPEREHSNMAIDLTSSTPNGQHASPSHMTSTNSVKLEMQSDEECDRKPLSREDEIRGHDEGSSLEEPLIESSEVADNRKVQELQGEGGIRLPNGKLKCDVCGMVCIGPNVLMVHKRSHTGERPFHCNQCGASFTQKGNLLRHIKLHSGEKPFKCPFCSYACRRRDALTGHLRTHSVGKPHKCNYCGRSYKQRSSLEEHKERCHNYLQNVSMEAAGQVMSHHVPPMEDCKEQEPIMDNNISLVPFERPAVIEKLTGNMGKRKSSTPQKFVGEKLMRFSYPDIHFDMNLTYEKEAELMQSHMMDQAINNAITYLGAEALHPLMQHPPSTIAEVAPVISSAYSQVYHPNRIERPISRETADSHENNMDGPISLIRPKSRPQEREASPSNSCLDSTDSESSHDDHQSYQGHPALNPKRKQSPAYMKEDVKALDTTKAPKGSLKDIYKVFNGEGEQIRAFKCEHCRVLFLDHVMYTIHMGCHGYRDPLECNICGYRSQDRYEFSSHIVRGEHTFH
T4 sequence (Q96SW2 whole entry): as the sequence (Q96SW2 whole entry) above
T4 sequence (Q16531 whole entry partner): as the sequence (Q16531 whole entry partner) above
Described as above. The class given is cell-based. The conditions noted are these: Western blot, 24 hours of compound treatment, compounds tested at 50 nM and 500 nM (concentration for the table not stated).

In assay [11] the target is T5, IKZF1 (Homo sapiens, UniProt Q13422+Q96SW2).
T5 construct: effects of the compounds of the present disclosure on the expression of target proteins in cells; endogenous in cells; host or cells: human PBMCs (Milecell Biotechnologies)
T5 sequence (Q13422 whole entry): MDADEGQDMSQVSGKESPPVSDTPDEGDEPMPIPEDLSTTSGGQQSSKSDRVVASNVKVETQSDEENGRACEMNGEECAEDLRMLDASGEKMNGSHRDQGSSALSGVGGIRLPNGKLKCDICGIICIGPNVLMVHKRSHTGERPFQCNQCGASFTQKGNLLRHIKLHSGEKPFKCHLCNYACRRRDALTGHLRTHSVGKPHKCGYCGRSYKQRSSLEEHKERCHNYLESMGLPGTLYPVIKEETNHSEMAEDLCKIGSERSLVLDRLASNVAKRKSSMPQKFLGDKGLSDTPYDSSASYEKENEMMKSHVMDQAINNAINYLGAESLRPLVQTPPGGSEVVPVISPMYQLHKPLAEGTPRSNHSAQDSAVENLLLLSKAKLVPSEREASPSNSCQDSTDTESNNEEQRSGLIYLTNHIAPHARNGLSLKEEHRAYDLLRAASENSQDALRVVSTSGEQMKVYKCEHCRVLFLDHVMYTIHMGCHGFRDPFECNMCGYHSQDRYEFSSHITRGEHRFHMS
T5 sequence (Q96SW2 whole entry): as the sequence (Q96SW2 whole entry) above
T5 sequence (Q16531 whole entry partner): as the sequence (Q16531 whole entry partner) above
The assay is described as above. The class given is cell-based. Particulars: Western blot, 24 hours of compound treatment, compounds tested at 50 nM and 500 nM (concentration for the table not stated).

Assay [12] has as its target T6, CK1α (Homo sapiens, UniProt P48729+Q96SW2).
T6 construct: effects of the compounds of the present disclosure on the expression of target proteins in cells; endogenous in cells; host or cells: human PBMCs (Milecell Biotechnologies)
Described as above. It is filed as cell-based. Particulars: Western blot, 24 hours of compound treatment, compounds tested at 50 nM and 500 nM (concentration for the table not stated).

The subject of assay [13] is Human breast cancer cell (MCF-7). Kind of assay: Tumor cell proliferation inhibition (CellTiter-Meiluncell luminescent cell viability assay). Particulars: MCF7, 96 h.
Description: as §1, §2, §3
Where [14] appears, read: read-out: Inhibition Rate at 10 nM (%).
The mark [15] stands for this setting: read-out: Inhibition Rate at 500 nM (%).

T3 sequence (P30291 whole entry): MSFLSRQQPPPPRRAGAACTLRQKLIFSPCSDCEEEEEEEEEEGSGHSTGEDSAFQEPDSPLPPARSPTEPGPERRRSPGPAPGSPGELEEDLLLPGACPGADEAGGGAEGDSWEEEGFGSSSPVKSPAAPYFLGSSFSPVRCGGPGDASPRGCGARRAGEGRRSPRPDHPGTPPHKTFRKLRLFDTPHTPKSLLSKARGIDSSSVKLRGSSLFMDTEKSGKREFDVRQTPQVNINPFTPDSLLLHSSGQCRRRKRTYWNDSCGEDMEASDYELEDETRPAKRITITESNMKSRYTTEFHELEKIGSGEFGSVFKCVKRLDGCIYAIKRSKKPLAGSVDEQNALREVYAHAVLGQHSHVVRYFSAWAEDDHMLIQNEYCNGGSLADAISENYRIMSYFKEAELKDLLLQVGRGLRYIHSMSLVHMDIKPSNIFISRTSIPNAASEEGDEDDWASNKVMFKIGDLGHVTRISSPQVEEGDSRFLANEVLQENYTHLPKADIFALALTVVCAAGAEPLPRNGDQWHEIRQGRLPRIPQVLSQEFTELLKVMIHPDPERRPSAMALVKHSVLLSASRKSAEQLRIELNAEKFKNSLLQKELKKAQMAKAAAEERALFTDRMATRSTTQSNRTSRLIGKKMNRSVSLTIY
T3 sequence (Q96SW2 whole entry): as the sequence (Q96SW2 whole entry) above
T3 sequence (Q16531 whole entry partner): as the sequence (Q16531 whole entry partner) above
T6 sequence (P48729 whole entry): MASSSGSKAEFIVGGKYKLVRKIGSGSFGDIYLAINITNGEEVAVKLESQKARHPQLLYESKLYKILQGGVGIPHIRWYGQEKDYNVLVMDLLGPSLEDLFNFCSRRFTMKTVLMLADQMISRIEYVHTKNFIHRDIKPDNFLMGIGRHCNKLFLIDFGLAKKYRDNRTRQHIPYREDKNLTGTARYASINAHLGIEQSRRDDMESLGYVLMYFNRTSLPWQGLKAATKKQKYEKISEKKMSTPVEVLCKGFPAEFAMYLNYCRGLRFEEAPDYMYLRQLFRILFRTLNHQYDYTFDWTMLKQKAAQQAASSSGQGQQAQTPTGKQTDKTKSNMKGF
T6 sequence (Q96SW2 whole entry): as the sequence (Q96SW2 whole entry) above
T6 sequence (Q16531 whole entry partner): as the sequence (Q16531 whole entry partner) above

As for `O=C1CCC(N2Cc3cc(CN4CCN(c5cccc(F)c5F)CC4)ccc3C2=S)C(=O)N1` (centres unmarked) [GT-08210, 3-(5-((4-(2,3-difluorophenyl)piperazin-1-yl)methyl)-1-thioxoisoindolin-2-yl)piperidine-2,6-dione], the inhibition at 0.01 µM is 5 to 10% in assay [1]; 20 to 30% in assay [2]; 20 to 30% in assay [5]; 20 to 30% in [6]; 10 to 20% in assay [7] (setting [14]). The inhibition at 0.5 µM was 80 to 100% in [1]; 80 to 100% in assay [2]; 60 to 80% in assay [3]; 80 to 100% in assay [5]; 60 to 70% in assay [6]; 80 to 100% in assay [7] (setting [15]). Also, the inhibition at 2 µM in assay [3] was in the range of 80 to 100%. Besides, the “GSPT1 substrate protein remaining %” value in [4] is on record as “A (0% ≤ substrate protein remaining % ≤ 80%)”. Also, the “IKZF3 substrate protein remaining %” value in assay [8] was “A (0% ≤ substrate protein remaining % ≤ 80%)”. Further, the “Wee1 substrate protein remaining %” value in assay [9] was “A (0% ≤ substrate protein remaining % ≤ 80%)”. Also, in assay [10], the “IKZF2 substrate protein remaining %” value was “A (0% ≤ substrate protein remaining % ≤ 80%)”. In addition, the “IKZF 1 substrate protein remaining %” value in [11] is “A (0% ≤ substrate protein remaining % ≤ 80%)”. In assay [12], the “CK1α substrate protein remaining %” value was “B (80%< substrate protein remaining %≤ 100%)”.
As to `O=C1CCC(N2Cc3c(CN4CCN(c5cccc(F)c5)CC4)cccc3C2=S)C(=O)N1` (centres unmarked) [GT-08263, 3-(4-((4-(3-fluorophenyl)piperazin-1-yl)methyl)-1-thioxoisoindolin-2-yl)piperidine-2,6-dione], the inhibition at 0.01 µM in assay [1] lay in the range of 60 to 80%; in assay [2], 50 to 60%; in assay [6], 20 to 30%. In addition, the inhibition at 0.5 µM in assay [1] was 80 to 100%; in assay [2], 60 to 70%; in assay [3] it was 53 to 60%; in [6], 30 to 40%. For the same molecule, the inhibition at 2 µM in assay [3] fell in the range of 80 to 100%. In [4], the “GSPT1 substrate protein remaining %” value was “A (0% ≤ substrate protein remaining % ≤ 80%)”. Besides, in [8], the “IKZF3 substrate protein remaining %” value is reported as “B (80%< substrate protein remaining %≤ 100%)”. Also, the “Wee1 substrate protein remaining %” value in assay [9] is “A (0% ≤ substrate protein remaining % ≤ 80%)”. In addition, in assay [10], the “IKZF2 substrate protein remaining %” value is recorded as “B (80%< substrate protein remaining %≤ 100%)”. In assay [11], the “IKZF 1 substrate protein remaining %” value is “B (80%< substrate protein remaining %≤ 100%)”. For the same molecule, in [12], the “CK1α substrate protein remaining %” value is recorded as “A (0% ≤ substrate protein remaining % ≤ 80%)”.
In the case of `O=C1CCC(N2Cc3c(CN4CCN(c5ccc(Cl)cc5)CC4)cccc3C2=S)C(=O)N1` (centres unmarked) [GT-08266, 3-(4-((4-(4-chlorophenyl)piperazin-1-yl)methyl)-1-thioxoisoindolin-2-yl)piperidine-2,6-dione], the inhibition at 0.01 µM in assay [1] lay in the range of 60 to 80%; in assay [13] (setting [14]), 40 to 50%; in assay [2], 50 to 60%; in assay [5], 40 to 50%. In addition, the inhibition at 0.5 µM in assay [1] lay in the range of 80 to 100%; in assay [13] (setting [15]) it was 40 to 50%; in assay [2], 50 to 60%; in [3], 30 to 40%; in [5], 50 to 60%. Further, the inhibition at 2 µM in [3] fell in the range of 60 to 80%. For the same molecule, the “GSPT1 substrate protein remaining %” value in assay [4] is “A (0% ≤ substrate protein remaining % ≤ 80%)”. For the same molecule, the “IKZF3 substrate protein remaining %” value in assay [8] is on record as “B (80%< substrate protein remaining %≤ 100%)”. In [9], the “Wee1 substrate protein remaining %” value is on record as “A (0% ≤ substrate protein remaining % ≤ 80%)”. In addition, in assay [10], the “IKZF2 substrate protein remaining %” value is on record as “B (80%< substrate protein remaining %≤ 100%)”. Besides, the “IKZF 1 substrate protein remaining %” value in [11] was “B (80%< substrate protein remaining %≤ 100%)”. Further, the “CK1α substrate protein remaining %” value in [12] was “B (80%< substrate protein remaining %≤ 100%)”.
As to `O=C1CCC(N2Cc3c(CN4CCN(c5cccc(F)c5F)CC4)cccc3C2=S)C(=O)N1` (centres unmarked) [GT-08268, 3-(4-((4-(2,3-difluorophenyl)piperazin-1-yl)methyl)-1-thioxoisoindolin-2-yl)piperidine-2,6-dione], in assay [1], the inhibition at 0.01 µM lay in the range of 60 to 80% and the inhibition at 0.5 µM lay in the range of 60 to 80%. Besides, in assay [2], the inhibition at 0.01 µM is 50 to 60% and the inhibition at 0.5 µM was 50 to 60%. In addition, in assay [3], the inhibition at 0.5 µM is 40 to 53% and the inhibition at 2 µM was 60 to 80%. Further, the “GSPT1 substrate protein remaining %” value in assay [4] is “A (0% ≤ substrate protein remaining % ≤ 80%)”. Moreover, the “IKZF3 substrate protein remaining %” value in assay [8] is reported as “B (80%< substrate protein remaining %≤ 100%)”. For the same molecule, in assay [9], the “Wee1 substrate protein remaining %” value is on record as “A (0% ≤ substrate protein remaining % ≤ 80%)”. The “IKZF2 substrate protein remaining %” value in assay [10] was “B (80%< substrate protein remaining %≤ 100%)”. Also, the “IKZF 1 substrate protein remaining %” value in assay [11] is given as “B (80%< substrate protein remaining %≤ 100%)”. For the same molecule, in [12], the “CK1α substrate protein remaining %” value is recorded as “B (80%< substrate protein remaining %≤ 100%)”.
As to `CC1(C)CCC(CN2CC3CCC(C2)N3Cc2cccc3c2CN(C2CCC(=O)NC2=O)C3=S)=C(c2ccc(Cl)cc2)C1` (centres unmarked) [GT-08292, 3-(4-((3-((4'-chloro-5,5-dimethyl-3,4,5,6-tetrahydro-[1,1'-biphenyl]-2-yl)methyl)-3,8-diazabicyclo[3.2.1]octan-8-yl)methyl)-1-thioxoisoindolin-2-yl)piperidine-2,6-dione], the figures for the inhibition at 0.01 µM in assay [1], in assay [2] and in [6] were 60 to 80%, 60 to 70% and 30 to 40%, respectively. In addition, the inhibition at 0.5 µM in assay [1] was in the range of 60 to 80%; in assay [2] it was 50 to 60%; in assay [3], 30 to 40%; in assay [6], 30 to 40%. Further, the inhibition at 2 µM in assay [3] fell in the range of 60 to 80%. Also, the “GSPT1 substrate protein remaining %” value in assay [4] is on record as “A (0% ≤ substrate protein remaining % ≤ 80%)”. In addition, the “IKZF3 substrate protein remaining %” value in [8] is listed as “B (80%< substrate protein remaining %≤ 100%)”. Also, the “Wee1 substrate protein remaining %” value in assay [9] was “A (0% ≤ substrate protein remaining % ≤ 80%)”. For the same molecule, the “IKZF2 substrate protein remaining %” value in assay [10] is “B (80%< substrate protein remaining %≤ 100%)”. The “IKZF 1 substrate protein remaining %” value in [11] is on record as “B (80%< substrate protein remaining %≤ 100%)”. For the same molecule, the “CK1α substrate protein remaining %” value in [12] is recorded as “A (0% ≤ substrate protein remaining % ≤ 80%)”.
On to `O=C1CCC(N2Cc3c(CN4CC=C(c5cccc(F)c5Cl)CC4)cccc3C2=S)C(=O)N1` (centres unmarked) [GT-08301, 3-(4-((4-(2-chloro-3-fluorophenyl)-3,6-dihydropyridin-1(2H)-yl)methyl)-1-thioxoisoindolin-2-yl)piperidine-2,6-dione], for which the inhibition at 0.01 µM lay within 40 to 60% in assay [1], 50 to 60% in assay [2] and 20 to 30% in assay [6]. For the same molecule, the inhibition at 0.5 µM in assay [1] lay in the range of 40 to 60%; in assay [2] it was 50 to 60%; in assay [6], 30 to 40%. In addition, the “GSPT1 substrate protein remaining %” value in assay [4] is “A (0% ≤ substrate protein remaining % ≤ 80%)”. In assay [8], the “IKZF3 substrate protein remaining %” value is given as “B (80%< substrate protein remaining %≤ 100%)”. Moreover, the “Wee1 substrate protein remaining %” value in assay [9] was “A (0% ≤ substrate protein remaining % ≤ 80%)”. The “IKZF2 substrate protein remaining %” value in [10] is listed as “B (80%< substrate protein remaining %≤ 100%)”. In [11], the “IKZF 1 substrate protein remaining %” value is reported as “B (80%< substrate protein remaining %≤ 100%)”. Besides, the “CK1α substrate protein remaining %” value in assay [12] is recorded as “A (0% ≤ substrate protein remaining % ≤ 80%)”.
